Experimental data taken from patent publication US9029076B2, “Tissue preservation and fixation method” (George Mason Research Foundation, Inc., priority 2006, dated 2015).

Assays:
Test in all cases: RPA phosphoprotein level after 24 h storage of tumor needle samples in preservatives
Details in all cases: 24 h in preservative at 4° C., relative normalized RPA intensity
[1] = test system: IKappa-Ba ser32
Experimental: (§1) The RPA format, originated by the present inventors and collaborators (see, e.g., Paweletz et al. (2001) Oncogene 20, 1981-1989), immobilizes an individual test sample in a miniature dilution curve such that an array contains hundreds of different patient samples, treatments, or time points. In the RPA format, each array is incubated with one detection protein (e.g. anti-peptide antibody), and a single analyte endpoint is measured and directly compared across multiple samples. Briefly, the lysates are printed on glass backed nitrocellulose array slides (FAST Slides Whatman, Florham Park, N.J. or ONCYTE slides Grace BioLabs, Bend, Oreg.) using a robotic array printing device (GMS 417 arrayer (Affymetrix, Santa Clara, Calif. or Aushon 2470, Aushon Biosystems, Burlington, Mass. equipped with 125-500 μm pins). Each lysate is printed in a dilution curve representing neat, 1:2, 1:4, 1:8, 1:16 and negative control dilutions. The slides are stored with desiccant (Drierite, W. A. Hammond, Xenia, Ohio) at −20° C. prior to immunostaining.
(§2) Immunostaining is performed on an automated slide stainer per manufacturer's instructions (Autostainer CSA kit, Dako, Carpinteria, Calif.). Each slide is incubated with a single primary antibody at room temperature for 30 minutes. Polyclonal primary antibodies can be, e.g.: GSK3α/β Tyr279/216 (Invitrogen-Biosource, Carlsbad, Calif.), BCL-2, HIF-1α (BD, Franklin Lakes, N.J.), 4EBP1, FKHR ser256, eIF4E, eIF4E ser209, eIF4G, eIF4G ser1108, IGFR-β, IRS-1, IRS-2, IRS-1 ser612, SGK, Bak, Bax, BAD, BAD ser112, BAD ser136, BAD ser155, B-Raf, mTOR, mTOR ser2448, p70S6 Thr389, p70S6 kinase, p70S6 ser371, S6 kinase ser240/244, Akt, Akt ser473, Akt Thr308, 4EBP1 ser65, 4EBP1 ser70, and 4EBP1 Thr37/46 (Cell Signaling Technology, Danvers, Mass.). A negative control slide is incubated with antibody diluent. Secondary antibody can be goat anti-rabbit IgG H+L (1:5000) (Vector Labs, Burlingame, Calif.).
(§3) Each array is scanned, spot intensity analyzed, data normalized, and a standardized, single data value can be generated for each sample on the array (Image Quant v5.2, GE Healthcare, Piscataway, N.J.) or MicroVigene v2.8, Vigene Tech, Billerica, Mass.). Spot intensity is integrated over a fixed area. Local area background intensity is calculated for each spot with the unprinted adjacent slide background. […] The Ward method for two-way hierarchical clustering can be performed using JMP v5.0 (SAS Institute, Cary N.C.). Wilcoxon two-sample rank sum test can be used to compare values between two groups. P values less than 0.05 are considered significant. When one cannot assume a normal distribution of the variables, non-parametric methods are used. Kaplan-Meier (log-rank) survival estimates for univariate survival analysis can be used.
(§4) Briefly, tumor tissues from gastrinoma/liver, mesothelioma and parathyroid tumors were sampled by five needle passes and placed into the preservatives listed in Table 5. […] Immediate lysis and denaturation of the cellular proteins were accomplished by standard Pierce Tissue Protein Extraction Buffer (T-PER), with additional SDS, denaturing reagents, and detergents. The cell samples were stored 24 h in the listed preservatives at 4° C. and then the listed phosphoprotein endpoints were measured. […] Some values dropped to zero while others are markedly elevated compared to the freshly lysed cell baseline. […] They were unable to stabilize the phosphorylation state of key signal proteins over a storage period of 24 hours, which is a typical time delay for cell or tissue shipment. Numbers in the table are relative normalized intensity values using the RPA technology described herein.

[2] = test system: CREB ser133
Experimental: as §1, §2, §3, §4

[3] = test system: CC3 Asp175
Experimental: as §1, §2, §3, §4

[4] = test system: p38 T180/182
Experimental: as §1, §2, §3, §4

[5] = test system: IRS-1 ser612
Experimental: as §1, §2, §3, §4

[6] = test system: AKT Thr308
Experimental: as §1, §2, §3, §4

[7] = test system: ERK T202/Y204
Experimental: as §1, §2, §3, §4

[8] = test system: AKT ser473
Experimental: as §1, §2, §3, §4

[9] = test system: GSK3ab ser21/9
Experimental: as §1, §2, §3, §4

[10] = test system: EGFR Y1148
Experimental: as §1, §2, §3, §4

[11] = Gastrinoma/liver tumor, Lysis Buffer = frozen immediately after lysis
[12] = Parathyroid tumor, Lysis Buffer = frozen immediately after lysis

| Compound | IKappa-Ba ser32 Normalized data [1, 11] | IKappa-Ba ser32 Normalized data ([1]; Mesothelioma) | IKappa-Ba ser32 Normalized data [1, 12] | CREBser133 Normalized data [2, 11] | CREBser133 Normalized data ([2]; Mesothelioma) | CREBser133 Normalized data [2, 12] | CC3 Asp175 Normalized data [3, 11] | CC3 Asp175 Normalized data ([3]; Mesothelioma) | CC3 Asp175 Normalized data [3, 12] | p38 T180/182 Normalized data [4, 11] | p38 T180/182 Normalized data ([4]; Mesothelioma) | p38 T180/182 Normalized data [4, 12] | IRS-1 ser612 Normalized data [5, 11] | IRS-1 ser612 Normalized data ([5]; Mesothelioma) | IRS-1 ser612 Normalized data [5, 12] | AKT Thr308 Normalized data [6, 11] | AKT Thr308 Normalized data ([6]; Mesothelioma) | AKT Thr308 Normalized data [6, 12] | ERK T202/Y204 Normalized data [7, 11] | ERK T202/Y204 Normalized data ([7]; Mesothelioma) | further results |
| --- | --- | --- | --- | --- | --- | --- | --- | --- | --- | --- | --- | --- | --- | --- | --- | --- | --- | --- | --- | --- | --- |
| [Cl-].[Na+] [0.9% saline, sodium chloride] | 29.64 | 16.87 | 1.87 | 24.09 | 17.20 | 5.35 | 14.57 | 10.85 | 5.46 | 33.41 | 26.34 | 4.79 | 4.82 | 2.34 | 0.00 | 9.73 | 8.97 | 0.00 | 10.75 | 7.72 | ERK T202/Y204 Normalized data [7, 12]: 0.00; AKT ser473 Normalized data [8, 11]: 3.76; AKT ser473 Normalized data ([8]; Mesothelioma): 9.78; AKT ser473 Normalized data [8, 12]: 1.84; GSK3ab ser21/9 Normalized data [9, 11]: 12.25; GSK3ab ser21/9 Normalized data ([9]; Mesothelioma): 9.46; GSK3ab ser21/9 Normalized data [9, 12]: 0.00; EGFR Y1148 Normalized data [10, 11]: 39.76; EGFR Y1148 Normalized data ([10]; Mesothelioma): 24.62; EGFR Y1148 Normalized data [10, 12]: 6.57 |
| OC[C@H]1O[C@H](O[C@H]2O[C@H](CO)[C@@H](O)[C@H](O)[C@H]2O)[C@H](O)[C@@H](O)[C@@H]1O [15% trehalose, Trehalose] | 32.99 | 13.29 | 24.12 | 55.11 | 10.01 | 21.50 | 11.19 | 6.82 | 7.76 | 36.95 | 7.39 | 30.53 | 25.51 | 0.00 | 0.05 | 19.93 | 0.95 | 5.38 | 17.01 | 0.00 | ERK T202/Y204 Normalized data [7, 12]: 9.34; AKT ser473 Normalized data [8, 11]: 0.00; AKT ser473 Normalized data ([8]; Mesothelioma): 7.86; AKT ser473 Normalized data [8, 12]: 0.26; GSK3ab ser21/9 Normalized data [9, 11]: 32.18; GSK3ab ser21/9 Normalized data ([9]; Mesothelioma): 7.80; GSK3ab ser21/9 Normalized data [9, 12]: 10.36; EGFR Y1148 Normalized data [10, 11]: 95.78; EGFR Y1148 Normalized data ([10]; Mesothelioma): 21.03; EGFR Y1148 Normalized data [10, 12]: 26.55 |
